The first assay has as its target T1, purified human HDAC6 (Homo sapiens, UniProt Q9UBN7).
T1 construct: purchased BPS Bioscience 5006
T1 sequence (Q9UBN7 1-1215): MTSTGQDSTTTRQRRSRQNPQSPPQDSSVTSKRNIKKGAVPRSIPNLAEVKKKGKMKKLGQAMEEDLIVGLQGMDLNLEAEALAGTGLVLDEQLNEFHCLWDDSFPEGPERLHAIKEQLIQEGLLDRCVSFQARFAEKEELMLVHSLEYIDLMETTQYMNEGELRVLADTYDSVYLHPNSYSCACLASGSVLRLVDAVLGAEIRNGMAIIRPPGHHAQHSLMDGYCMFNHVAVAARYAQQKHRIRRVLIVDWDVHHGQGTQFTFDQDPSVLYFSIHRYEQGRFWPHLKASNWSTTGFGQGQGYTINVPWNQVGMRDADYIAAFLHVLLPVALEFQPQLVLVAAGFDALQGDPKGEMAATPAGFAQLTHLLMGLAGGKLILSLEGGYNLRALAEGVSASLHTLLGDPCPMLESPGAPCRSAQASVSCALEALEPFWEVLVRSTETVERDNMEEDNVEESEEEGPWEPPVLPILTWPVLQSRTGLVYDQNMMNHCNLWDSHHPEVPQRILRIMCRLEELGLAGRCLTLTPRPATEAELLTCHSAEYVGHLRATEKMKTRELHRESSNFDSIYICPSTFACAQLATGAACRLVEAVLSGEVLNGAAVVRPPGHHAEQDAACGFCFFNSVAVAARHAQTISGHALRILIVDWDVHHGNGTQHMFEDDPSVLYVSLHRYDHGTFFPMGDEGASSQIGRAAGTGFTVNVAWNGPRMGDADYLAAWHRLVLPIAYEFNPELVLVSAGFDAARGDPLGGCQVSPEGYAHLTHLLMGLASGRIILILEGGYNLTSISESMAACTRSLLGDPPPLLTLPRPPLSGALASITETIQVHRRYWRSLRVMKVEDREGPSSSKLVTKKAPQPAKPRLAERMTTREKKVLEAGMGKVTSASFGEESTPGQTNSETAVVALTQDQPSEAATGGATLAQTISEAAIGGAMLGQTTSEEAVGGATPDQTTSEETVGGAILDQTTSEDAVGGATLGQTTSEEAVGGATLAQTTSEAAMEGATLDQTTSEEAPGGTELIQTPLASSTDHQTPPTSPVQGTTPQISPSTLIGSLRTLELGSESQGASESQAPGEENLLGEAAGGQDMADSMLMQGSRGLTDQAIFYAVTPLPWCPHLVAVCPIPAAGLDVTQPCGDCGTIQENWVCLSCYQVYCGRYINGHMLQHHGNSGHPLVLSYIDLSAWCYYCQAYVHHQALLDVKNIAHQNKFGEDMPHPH
Briefly: HDAC6 Enzyme Assay. Format: biochemical. Conditions: compound concentration 0.37 μM, read-out: Percent Inhibition. In a few lines: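 Purified human HDAC6 incubated 1 h at 30° C with Ac-Arg-Gly-Lys(Ac)-AMC peptide plus compound or DMSO; stopped with trichostatin A. Deacetylated product trypsin-digested, released AMC read by fluorescence (Ex 340/Em 460 nm). Percent inhibition at one concentration or IC50 from curves relative to DMSO controls.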
Usually inhibition stands for the drop in the measured response relative to a control, in per cent. Turning to `O=C(NO)c1ccc2ncn(Cc3cccc(-c4cc5ccccc5s4)c3)c(=O)c2c1` [Compound I-268, 3-[3-(1-benzothien-2-yl)benzyl]-N-hydroxy-4-oxo-3,4-dihydroquinazoline-6-carboxamide], the inhibition at 0.37 µM was found to be 93.2%.

The assay is the same for the next values; noted with them: compound concentration 0.412 μM, read-out: Percent Inhibition.
Consider `COc1ccc(OCCn2ccc3ccc(C(=O)NO)cc3c2=O)cc1` [Compound I-257, N-hydroxy-2-[2-(4-methoxyphenoxy)ethyl]-1-oxo-1,2-dihydroisoquinoline-7-carboxamide], for which the inhibition at 0.412 µM was determined as 96.8%. The same measure, in the same setting: the figure for `O=C(NO)c1ccc2ccn(CCOc3cccc(OCc4ccccc4)c3)c(=O)c2c1` [Compound I-258, 2-{2-[3-(benzyloxy)phenoxy]ethyl}-N-hydroxy-1-oxo-1,2-dihydroisoquinoline-7-carboxamide] is 93.9%; for `Cc1onc(-c2ccccc2)c1Cn1ccc2ccc(C(=O)NO)cc2c1=O` [Compound I-259, N-hydroxy-2-[(5-methyl-3-phenylisoxazol-4-yl)methyl]-1-oxo-1,2-dihydroisoquinoline-7-carboxamide] it is 96.1%. With `O=C(NO)c1ccc2c(=O)[nH]c(-c3cccc(C(F)(F)F)c3)nc2c1` [Compound I-260, N-hydroxy-4-oxo-2-[3-(trifluoromethyl)phenyl]-3,4-dihydroquinazoline-7-carboxamide], the inhibition at 0.412 µM came to 73.2%.

`O=C(NO)c1ccc2ccn(CC3CC3)c(=O)c2c1` [Compound I-261, 2-(cyclopropylmethyl)-N-hydroxy-1-oxo-1,2-dihydroisoquinoline-7-carboxamide]: the inhibition at 0.412 µM came to 87.5%.

In the case of `O=C(NO)c1ccc2c(=O)n(-c3ccc(Cl)cc3)c(NCc3ccc(Cl)cc3)nc2c1` [Compound I-262, 2-[(4-chlorobenzyl)amino]-3-(4-chlorophenyl)-N-hydroxy-4-oxo-3,4-dihydroquinazoline-7-carboxamide], the inhibition at 0.412 µM turned out to be 68.2%. The same measure, in the same setting: the figure for `O=C(NO)c1ccc2c(=O)n(CCc3ccccn3)c(-c3ccccc3)nc2c1` [Compound I-263, N-hydroxy-4-oxo-2-phenyl-3-(2-pyridin-2-ylethyl)-3,4-dihydroquinazoline-7-carboxamide] is 91.1%. Same read-out and setting: next, `O=C(NO)c1ccc2[nH]c(=O)n(Cc3ccccc3)c(=O)c2c1` [Compound I-264, 3-benzyl-N-hydroxy-2,4-dioxo-1,2,3,4-tetrahydroquinazoline-6-carboxamide]: 93%.

`Cc1ccc(OCc2nc3cc(C(=O)NO)ccc3c(=O)[nH]2)cc1` [Compound I-265, N-hydroxy-2-[(4-methylphenoxy)methyl]-4-oxo-3,4-dihydroquinazoline-7-carboxamide]: the inhibition at 0.412 µM stood at 81.3%. With `CC(C)(C)OC(=O)Nc1cccc(Cn2ccc3ccc(C(=O)NO)cc3c2=O)c1` [Compound I-266, tert-butyl (3-{[7-[(hydroxyamino)carbonyl]-1-oxoisoquinolin-2(1H)-yl]methyl}phenyl)carbamate], the inhibition at 0.412 µM stood at 87.9%. Still for that read-out and setting: the figure for `CC(C)(C)c1ccc(Cn2ccc3ccc(C(=O)NO)cc3c2=O)cc1` [Compound I-267, 2-(4-tert-butylbenzyl)-N-hydroxy-1-oxo-1,2-dihydroisoquinoline-7-carboxamide] is 94.8%; for `O=C(NO)c1ccc2ccn(CCCn3cccc3)c(=O)c2c1` [Compound I-269, N-hydroxy-1-oxo-2-[3-(1H-pyrrol-1-yl)propyl]-1,2-dihydroisoquinoline-7-carboxamide] it is 94.5%; for `O=C(NO)c1ccc2ccn(CCOc3ccc(OCc4ccccc4)cc3)c(=O)c2c1` [Compound I-270, 2-{2-[4-(benzyloxy)phenoxy]ethyl}-N-hydroxy-1-oxo-1,2-dihydroisoquinoline-7-carboxamide] it is 83.4%. Same read-out and setting: next, `O=C(NO)c1ccc2ccn(CCOc3ccc(-n4ccnc4)cc3)c(=O)c2c1` [Compound I-271, N-hydroxy-2-{2-[4-(1H-imidazol-1-yl)phenoxy]ethyl}-1-oxo-1,2-dihydroisoquinoline-7-carboxamide]: 96.9%.

These data come from patent publication US8765773B2, “Substituted hydroxamic acids and uses thereof” (Millennium Pharmaceuticals, Inc., priority 2010, dated 2014).
